Publication PMC11637875, “Discovery of novel PARP1/NRP1 dual-targeting inhibitors with strong antitumor potency” (Frontiers in Pharmacology, 2024)

How the values were obtained:
ABL2 = ABL2 (Homo sapiens, UniProt P42684); experiment: Selectivity profile (123 kinase panel); format: biochemical
AKT1 = AKT1 (Homo sapiens, UniProt P31749); experiment: Selectivity profile (123 kinase panel); format: biochemical
AurA = AurA (Homo sapiens, UniProt O14965); experiment: Selectivity profile (123 kinase panel); format: biochemical
BRK = BRK (Homo sapiens, UniProt Q13882); experiment: Selectivity profile (123 kinase panel); format: biochemical
CK1δ = CK1δ (Homo sapiens, UniProt P48730); experiment: Selectivity profile (123 kinase panel); format: biochemical
CK1δ, sequence (P48730 whole entry): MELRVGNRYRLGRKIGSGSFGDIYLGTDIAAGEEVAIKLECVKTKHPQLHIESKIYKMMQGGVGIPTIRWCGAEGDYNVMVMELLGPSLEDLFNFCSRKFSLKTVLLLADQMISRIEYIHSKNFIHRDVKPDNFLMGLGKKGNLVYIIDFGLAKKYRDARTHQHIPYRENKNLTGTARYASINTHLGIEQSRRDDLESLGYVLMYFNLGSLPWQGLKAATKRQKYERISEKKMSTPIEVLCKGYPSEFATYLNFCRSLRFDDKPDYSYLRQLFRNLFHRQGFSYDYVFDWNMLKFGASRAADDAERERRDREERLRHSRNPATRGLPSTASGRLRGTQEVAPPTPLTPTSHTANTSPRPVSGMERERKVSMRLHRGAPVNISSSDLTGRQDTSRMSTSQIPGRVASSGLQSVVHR

DYRK4 = DYRK4 (Homo sapiens, UniProt Q9NR20); experiment: Selectivity profile (123 kinase panel); format: biochemical
DYRK4, sequence (Q9NR20 whole entry): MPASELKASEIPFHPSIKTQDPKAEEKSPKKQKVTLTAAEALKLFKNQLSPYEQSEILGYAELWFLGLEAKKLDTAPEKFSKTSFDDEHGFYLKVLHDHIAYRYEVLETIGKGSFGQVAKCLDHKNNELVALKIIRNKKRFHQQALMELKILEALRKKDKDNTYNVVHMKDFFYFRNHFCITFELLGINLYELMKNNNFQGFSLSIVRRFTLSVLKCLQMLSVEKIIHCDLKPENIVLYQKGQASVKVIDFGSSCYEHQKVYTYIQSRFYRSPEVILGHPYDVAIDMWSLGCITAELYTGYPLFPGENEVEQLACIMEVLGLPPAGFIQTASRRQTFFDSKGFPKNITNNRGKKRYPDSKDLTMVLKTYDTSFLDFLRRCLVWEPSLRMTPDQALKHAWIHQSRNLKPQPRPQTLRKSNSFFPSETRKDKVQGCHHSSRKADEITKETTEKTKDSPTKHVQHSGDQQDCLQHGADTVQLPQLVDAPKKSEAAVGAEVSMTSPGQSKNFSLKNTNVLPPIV

EPHA1 = EPHA1 (Homo sapiens, UniProt P21709); experiment: Selectivity profile (123 kinase panel); format: biochemical
EPHA3 = EPHA3 (Homo sapiens, UniProt P29320); experiment: Selectivity profile (123 kinase panel); format: biochemical
EPHB4 = EPHB4 (Homo sapiens, UniProt P54760); experiment: Selectivity profile (123 kinase panel); format: biochemical
EPHB4, sequence (P54760 16-987, species assumed): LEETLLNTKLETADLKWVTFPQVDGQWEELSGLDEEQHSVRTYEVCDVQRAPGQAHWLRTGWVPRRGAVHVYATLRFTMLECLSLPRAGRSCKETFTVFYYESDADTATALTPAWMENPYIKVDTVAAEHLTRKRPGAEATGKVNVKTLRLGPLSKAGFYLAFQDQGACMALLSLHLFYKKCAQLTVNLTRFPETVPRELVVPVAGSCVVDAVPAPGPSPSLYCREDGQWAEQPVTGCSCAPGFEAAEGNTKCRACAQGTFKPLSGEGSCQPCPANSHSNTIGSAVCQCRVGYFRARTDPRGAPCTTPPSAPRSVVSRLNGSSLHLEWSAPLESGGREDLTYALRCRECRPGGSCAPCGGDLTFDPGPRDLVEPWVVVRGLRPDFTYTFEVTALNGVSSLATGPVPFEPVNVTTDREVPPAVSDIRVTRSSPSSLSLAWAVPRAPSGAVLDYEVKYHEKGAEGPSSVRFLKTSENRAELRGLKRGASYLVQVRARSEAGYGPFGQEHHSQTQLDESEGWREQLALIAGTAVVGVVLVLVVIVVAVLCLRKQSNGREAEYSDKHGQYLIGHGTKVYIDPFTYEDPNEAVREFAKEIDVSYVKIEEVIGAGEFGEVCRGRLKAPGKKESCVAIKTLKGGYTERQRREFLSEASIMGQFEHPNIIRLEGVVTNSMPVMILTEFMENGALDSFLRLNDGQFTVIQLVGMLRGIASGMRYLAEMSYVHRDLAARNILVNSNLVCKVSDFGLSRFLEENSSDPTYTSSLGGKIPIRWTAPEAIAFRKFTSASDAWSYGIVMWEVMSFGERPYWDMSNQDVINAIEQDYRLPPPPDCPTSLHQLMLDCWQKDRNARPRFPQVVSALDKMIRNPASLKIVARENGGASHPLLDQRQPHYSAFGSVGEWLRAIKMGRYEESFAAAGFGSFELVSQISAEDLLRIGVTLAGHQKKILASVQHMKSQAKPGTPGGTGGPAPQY

FES = FES (Homo sapiens, UniProt P07332); experiment: Selectivity profile (123 kinase panel); format: biochemical
FGFR4 = FGFR4 (Homo sapiens, UniProt P22455); experiment: Selectivity profile (123 kinase panel); format: biochemical
FGR = FGR (Homo sapiens, UniProt P09769); experiment: Selectivity profile (123 kinase panel); format: biochemical
FGR, sequence (P09769 whole entry, species assumed): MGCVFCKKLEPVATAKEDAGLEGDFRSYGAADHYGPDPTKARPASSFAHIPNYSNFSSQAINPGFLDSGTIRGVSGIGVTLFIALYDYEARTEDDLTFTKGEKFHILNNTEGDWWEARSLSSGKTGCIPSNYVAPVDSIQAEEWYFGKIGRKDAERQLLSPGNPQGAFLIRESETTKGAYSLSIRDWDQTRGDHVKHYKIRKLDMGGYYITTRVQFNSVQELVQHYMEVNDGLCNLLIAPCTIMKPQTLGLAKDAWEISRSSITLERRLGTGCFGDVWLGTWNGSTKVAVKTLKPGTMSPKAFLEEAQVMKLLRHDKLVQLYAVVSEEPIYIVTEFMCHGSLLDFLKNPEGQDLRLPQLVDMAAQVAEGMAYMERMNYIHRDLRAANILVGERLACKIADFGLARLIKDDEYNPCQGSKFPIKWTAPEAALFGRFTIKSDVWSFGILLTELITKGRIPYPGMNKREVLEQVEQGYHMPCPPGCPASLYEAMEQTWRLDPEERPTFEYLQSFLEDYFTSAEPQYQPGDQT

GSK3β = GSK3β (Homo sapiens, UniProt P49841); experiment: Selectivity profile (123 kinase panel); format: biochemical
GSK3β, sequence (P49841 whole entry): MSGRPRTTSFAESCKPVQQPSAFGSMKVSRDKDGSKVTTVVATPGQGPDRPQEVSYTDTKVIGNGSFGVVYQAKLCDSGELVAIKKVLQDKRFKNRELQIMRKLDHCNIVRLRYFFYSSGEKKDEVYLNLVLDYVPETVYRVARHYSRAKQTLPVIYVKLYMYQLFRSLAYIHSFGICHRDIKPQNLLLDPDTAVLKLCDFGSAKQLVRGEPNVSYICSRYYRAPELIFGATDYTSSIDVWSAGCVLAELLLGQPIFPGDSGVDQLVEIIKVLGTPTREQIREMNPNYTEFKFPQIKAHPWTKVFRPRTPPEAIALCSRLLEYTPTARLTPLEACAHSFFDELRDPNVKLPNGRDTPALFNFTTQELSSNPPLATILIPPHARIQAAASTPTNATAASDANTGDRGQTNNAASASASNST

MER = MER (Homo sapiens, UniProt Q12866); experiment: Selectivity profile (123 kinase panel); format: biochemical
MET = MET (Homo sapiens, UniProt P08581); experiment: Selectivity profile (123 kinase panel); format: biochemical
MET, sequence (P08581 25-1390): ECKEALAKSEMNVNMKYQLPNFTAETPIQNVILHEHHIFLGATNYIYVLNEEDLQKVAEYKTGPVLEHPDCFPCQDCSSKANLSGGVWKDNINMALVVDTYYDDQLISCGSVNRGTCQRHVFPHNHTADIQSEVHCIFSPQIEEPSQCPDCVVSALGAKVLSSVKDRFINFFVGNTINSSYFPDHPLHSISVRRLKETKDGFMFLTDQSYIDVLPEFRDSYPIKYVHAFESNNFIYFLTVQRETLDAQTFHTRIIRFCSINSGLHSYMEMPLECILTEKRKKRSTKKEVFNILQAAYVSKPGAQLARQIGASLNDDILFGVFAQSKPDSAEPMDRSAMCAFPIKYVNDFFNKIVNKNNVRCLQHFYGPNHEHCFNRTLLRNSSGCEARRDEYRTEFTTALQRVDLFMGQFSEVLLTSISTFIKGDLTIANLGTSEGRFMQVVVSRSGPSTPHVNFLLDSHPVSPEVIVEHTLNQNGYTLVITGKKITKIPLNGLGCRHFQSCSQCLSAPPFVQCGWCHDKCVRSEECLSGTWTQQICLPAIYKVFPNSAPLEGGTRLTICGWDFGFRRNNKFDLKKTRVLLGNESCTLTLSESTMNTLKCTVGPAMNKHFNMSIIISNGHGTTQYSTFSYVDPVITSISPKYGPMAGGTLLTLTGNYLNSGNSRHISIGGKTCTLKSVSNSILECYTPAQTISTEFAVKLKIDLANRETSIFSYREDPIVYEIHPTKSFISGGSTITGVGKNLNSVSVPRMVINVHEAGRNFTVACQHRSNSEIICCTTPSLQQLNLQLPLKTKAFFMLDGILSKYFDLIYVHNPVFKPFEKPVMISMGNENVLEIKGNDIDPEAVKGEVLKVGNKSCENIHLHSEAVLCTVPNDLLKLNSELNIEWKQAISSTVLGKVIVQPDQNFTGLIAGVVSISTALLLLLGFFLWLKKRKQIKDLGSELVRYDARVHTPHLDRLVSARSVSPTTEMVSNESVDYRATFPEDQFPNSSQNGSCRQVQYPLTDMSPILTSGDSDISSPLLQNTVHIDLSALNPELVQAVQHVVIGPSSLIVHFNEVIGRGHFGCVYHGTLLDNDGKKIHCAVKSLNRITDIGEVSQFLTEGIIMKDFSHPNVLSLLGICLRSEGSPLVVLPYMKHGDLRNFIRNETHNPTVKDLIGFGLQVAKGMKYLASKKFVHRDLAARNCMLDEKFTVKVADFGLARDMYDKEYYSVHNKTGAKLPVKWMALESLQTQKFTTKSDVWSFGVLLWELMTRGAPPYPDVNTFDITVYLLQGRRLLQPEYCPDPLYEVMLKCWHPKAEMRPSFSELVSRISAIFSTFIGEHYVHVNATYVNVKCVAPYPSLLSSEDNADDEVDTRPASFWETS

MSK1 = MSK1 (Homo sapiens, UniProt O75582); experiment: Selectivity profile (123 kinase panel); format: biochemical
PARP3 = PARP3 (Homo sapiens, UniProt Q9Y6F1); experiment: Selectivity profile (other isoforms of PARP and NRP family); format: biochemical
PARP3, sequence (Q9Y6F1 whole entry, canonical isoform): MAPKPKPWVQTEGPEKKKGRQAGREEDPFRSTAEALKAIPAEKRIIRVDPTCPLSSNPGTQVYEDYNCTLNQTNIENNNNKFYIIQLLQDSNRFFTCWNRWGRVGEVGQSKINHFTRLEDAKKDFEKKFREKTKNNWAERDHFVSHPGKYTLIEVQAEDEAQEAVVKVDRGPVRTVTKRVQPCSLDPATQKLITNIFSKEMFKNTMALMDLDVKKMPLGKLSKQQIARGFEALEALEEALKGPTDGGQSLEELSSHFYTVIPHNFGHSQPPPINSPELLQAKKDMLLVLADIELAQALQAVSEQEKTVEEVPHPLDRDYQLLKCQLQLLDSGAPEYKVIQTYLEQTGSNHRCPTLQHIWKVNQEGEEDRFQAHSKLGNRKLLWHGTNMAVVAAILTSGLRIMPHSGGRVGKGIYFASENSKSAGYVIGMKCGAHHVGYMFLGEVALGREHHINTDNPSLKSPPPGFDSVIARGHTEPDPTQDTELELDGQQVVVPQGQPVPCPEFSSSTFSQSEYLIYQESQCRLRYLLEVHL

PARP13 = PARP13 (Homo sapiens, UniProt Q7Z2W4); experiment: as above; format: biochemical
NRP1 = target: T1, NRP1 (Homo sapiens, UniProt O14786); experiment: Microscale thermophoresis (MST) assay; format: binding; details: labeled protein 50 nM, read-out: NRP1 (K d)
T1 construct: purchased Abcam
T1 sequence (O14786 22-644 isoform O14786-2 limits assumed): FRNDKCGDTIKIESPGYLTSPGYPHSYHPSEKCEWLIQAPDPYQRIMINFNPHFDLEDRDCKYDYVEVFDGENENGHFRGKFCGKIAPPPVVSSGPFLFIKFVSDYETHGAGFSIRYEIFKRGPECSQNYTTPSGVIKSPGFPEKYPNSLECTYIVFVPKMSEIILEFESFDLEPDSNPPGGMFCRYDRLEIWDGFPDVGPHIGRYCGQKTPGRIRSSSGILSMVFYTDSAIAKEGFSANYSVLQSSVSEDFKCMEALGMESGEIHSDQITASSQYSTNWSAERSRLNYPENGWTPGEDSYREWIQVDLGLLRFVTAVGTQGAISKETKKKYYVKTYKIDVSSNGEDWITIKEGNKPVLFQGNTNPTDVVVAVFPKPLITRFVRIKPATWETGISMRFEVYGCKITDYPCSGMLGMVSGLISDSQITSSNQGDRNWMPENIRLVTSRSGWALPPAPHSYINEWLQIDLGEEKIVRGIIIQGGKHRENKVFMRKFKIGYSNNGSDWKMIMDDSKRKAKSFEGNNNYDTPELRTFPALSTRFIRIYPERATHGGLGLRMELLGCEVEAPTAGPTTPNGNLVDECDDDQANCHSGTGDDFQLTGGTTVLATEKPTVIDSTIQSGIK
Experimental: (§1) All samples were diluted in 1 × PBST. […] Affinity Analysis software.

PARP1 = target: T2, PARP1 (Homo sapiens, UniProt P09874); experiment: Microscale thermophoresis (MST) assay; format: binding; details: labeled protein 50 nM, read-out: PARP1 (K d)
T2 construct: purchased Abcam
Experimental: as §1

[1] = tested on: MDA-MB-231 xenograft tumor; experiment: In vivo antitumor assay; parameters: species or system BALB/c nude mice; details: for body weight (g) in mice, mean / tumor volume (mm^3), mean: 5 mg/kg intraperitoneally every 3 days, n = 6
Experimental: Twenty-four female BALB/c nude mice (body weight 16–20 g) at 4–6 weeks old were purchased from Changzhou Cavens Experimental Animal Limited Company (Changzhou, China). Mice were adaptively housed for 1 week in a specific pathogen-free (SPF) environment with a temperature of 25°C ± 2°C, a 12-hour light/dark cycle, and free access to food and water. MDA-MB-231 breast cancer cells (200 μL, 1×10^7 cells) were suspended in PBS to formulate cell suspension, and 0.1 mL of cells were injected into the axilla of the left forelimb of mice by subcutaneous injection. […] Equal concentrations of drug-free PBS buffer were used for the vehicle group. Each group was administered every 3 days and the body weight and tumor size of the mice were recorded. Mice were executed when the tumor volume approached 2000 mm^3. Tumor volumes of all mice were measured using vernier calipers. The mice were placed belly up and the longest diameter of the tumor was measured with the inner bayonet of a vernier caliper, and the shortest transverse diameter perpendicular to the diameter was measured with the inner bayonet of a vernier caliper and recorded. Tumor volume was estimated according to the following formula: (c × c × d)/2 (c, the smallest diameter; d, the largest diameter). All animal experiments were performed and approved by the Ethics Committee of China Pharmaceutical University.

IC50 (ABL2): > 10 µM
IC50 (AKT1): > 10 µM
IC50 (AurA): > 10 µM
IC50 (BRK): > 10 µM
IC50 (CK1δ): > 10 µM
IC50 (DYRK4): > 10 µM
IC50 (EPHA1): > 10 µM
IC50 (EPHA3): > 10 µM
IC50 (EPHB4): > 10 µM
IC50 (FES): > 10 µM
IC50 (FGFR4): > 10 µM
IC50 (FGR): > 10 µM
IC50 (GSK3β): > 10 µM
IC50 (MER): > 10 µM
IC50 (MET): > 10 µM
IC50 (MSK1): > 10 µM
IC50 (PARP3): > 10 µM
IC50 (PARP13): > 10 µM
Kd (NRP1): 0.0166 µM
Kd (PARP1): 0.00715 µM
SMILES: NC(N)=NCCC[C@H](NCN1CCN(C(=O)c2cc(Cc3n[nH]c(=O)c4ccccc34)ccc2F)CC1)C(=O)O [PPNR-4]
inhibitory effect on tumor volume growth ([1]; 5 mg/kg, in comparison to the olaparib or EG00229-treated groups): more remarkable inhibitory effect on tumor volume growth
body weight (g) in mice, mean ([1]; day 0): 18.41 g
tumor volume (mm^3), mean ([1]; day 0): 99 mm^3
body weight (g) in mice, mean ([1]; day 3): 18.62 g
tumor volume (mm^3), mean ([1]; day 3): 155 mm^3
body weight (g) in mice, mean ([1]; day 6): 18.85 g
tumor volume (mm^3), mean ([1]; day 6): 196 mm^3
body weight (g) in mice, mean ([1]; day 9): 19.07 g
tumor volume (mm^3), mean ([1]; day 9): 253 mm^3
body weight (g) in mice, mean ([1]; day 12): 19.33 g
tumor volume (mm^3), mean ([1]; day 12): 226 mm^3
